According to PMC10024865 (Journal of medicinal chemistry, 2022):

How the values were obtained:
PC3M cells [1] = experiment: BellBrook Labs tumor cell migration; format: cell-based; conditions: 3D collagen
PC3M cells [2] = experiment: Secondary cytotoxicity/viability assays; format: cell-based; conditions: ATP, caspase 3/7, PicoGreen
[3] = tested on: PNC prevalence in PC3M cells (GFP-PTB); experiment: High-content assay for PNC reduction; format: cell-based
in vivo = conditions: ip
[4] = tested on: nucleolar volume in PC3M cells; experiment: Nucleolar disassembly assay; format: cell-based; conditions: 24 hr, concentration-response
[5] = mouse, in vivo, ip, 5 mg/kg
[6] = Parallel artificial membrane permeability assay; format: in vitro ADME; conditions: pH 7.4
[7] = tested on: nucleolar architecture in PC3M cells; experiment: Immunofluorescence of nucleolar markers RP-194 and NOPP140; format: cell-based; conditions: 1 μM, 1 hour

O=C(Nc1cccnc1)c1cccs1 [CID 790407]
Activity in the invasion assay (PC3M cells [1]): active | Activity in all other secondary cytotoxicity/viability assays (PC3M cells [2]): inactive

N#Cc1c(-c2ccccc2)c(-c2ccccc2)n(Cc2ccccc2)c1N [Compound 2a]
PNC reduction activity (in words) [3]: inactive

CCO/C=N/c1c(C#N)c(-c2ccccc2)c(-c2ccccc2)n1Cc1ccccc1 [Compound 3a, Ethyl (E)-N-(1-benzyl-3-cyano-4,5-diphenyl-1H-pyrrol-2-yl)formimidate]
PNC reduction activity (in words) [3]: inactive

N#Cc1c(-c2ccccc2)c(-c2ccccc2)n(Cc2ccccc2)c1/N=C/N[C@H]1CC[C@H](O)CC1 [Compound 4f, (E)-N'-(1-benzyl-3-cyano-4,5-diphenyl-1H-pyrrol-2-yl)-N-((trans)-4-hydroxycyclohexyl)formimidamide]
PNC reduction activity (in words) [3]: inactive

N=c1c2c(-c3ccccc3)c(-c3ccccc3)n(Cc3ccccc3)c2ncn1[C@H]1CC[C@H](O)CC1 [Compound 5f, trans-4-(7-Benzyl-4-imino-5,6-diphenyl-4,7-dihydro-3H-pyrrolo[2,3-d]pyrimidin-3-yl)cyclohexan-1-ol]
half-life (in vivo; female, BALB/c, mouse, 5 mg/kg): 4.64 h | half-life (in vivo; female, BALB/c, mouse, 25 mg/kg): 5.52 h | concentration at 48 h (in vivo; female, BALB/c, mouse, 25 mg/kg, C48h (μM)): 0.011 µM | half-life (in vivo; male, C57BL/6, mouse, 50 mg/kg): 16.4 h | effect on nucleolar volume [4]: able to reduce nucleolar volume | C48h (μM) [5]: BLQ^b

Cc1c(C)n(Cc2ccccc2)c2ncn([C@H]3CC[C@H](O)CC3)c(=N)c12 [Compound 5nnn, (trans)-4-(7-Benzyl-4-imino-5,6-dimethyl-4,7-dihydro-3H-pyrrolo[2,3-d]pyrimidin-3-yl)cyclohexan-1-ol]
PAMPA permeability (in words) [6]: negligible

N=c1c2c(-c3ccccc3)cn(Cc3ccccc3)c2ncn1C1CCOCC1 [Compound 11b, 7-Benzyl-5-phenyl-3-(tetrahydro-2H-pyran-4-yl)-3,7-dihydro-4H-pyrrolo[2,3-d]pyrimidin-4-imine]
distribution of RP-194 and NOPP140 in the nucleolus [7]: diffuse distribution | effect on nucleolar volume [4]: did not influence nucleolar integrity and morphology

OCCCNc1ncnc2c1c(-c1ccccc1)c(-c1ccccc1)n2Cc1ccccc1 [Compound 13a, 3-((7-Benzyl-5,6-diphenyl-7H-pyrrolo[2,3-d]pyrimidin-4-yl)amino)propan-1-ol]
PNC reduction activity (in words) [3]: uniformly inactive

O[C@H]1CC[C@H](Nc2ncnc3c2c(-c2ccccc2)c(-c2ccccc2)n3Cc2ccccc2)CC1 [Compound 13b, trans-4-((7-Benzyl-5,6-diphenyl-7H-pyrrolo[2,3-d]pyrimidin-4-yl)amino)cyclohexan-1-ol]
PNC reduction activity (in words) [3]: uniformly inactive
